# Laboratory results published in patent publication US20250171461A1, “STIMULATOR OF INTERFERON GENES (STING) MODULATORS, AND COMPOSITIONS AND METHODS THEREOF” (Geode Therapeutics Inc., priority 2022, published 2025).
# Biological target: T1, human HAQ STING isoform (hSTING HAQ) (Homo sapiens, UniProt Q86WV6, G230A/H232R/R293Q/R71H)
# T1 construct: THP1 cells express the naturally occurring human HAQ STING isoform (hSTING HAQ); host or cells: THP1
# Test: IFN-β mRNA level in THP1 cells (qPCR, STING agonist cellular activity)
# Assay type: cell-based
# Conditions: compound at 3.6 μM, 2 hrs, IFNβ expression normalized against GAPDH by the 2^-ΔΔCT method, DMSO = 1.0
# Procedure: Cellular activity of STING agonists was determined by mRNA levels of IFN-β in THP1 (Otwo Biotech HTX1621) cell line. THP1 cells express the naturally occurring human HAQ STING isoform (hSTING HAQ), which responses to the activation of STING agonists.
# THP1 cells were seeded into Falcon 12-well cell Culture Plate (Corning #353043) at 9×10^5 cells per well, in 1 ml complete culture medium (RPMI-1640, GIBCO #C1187500BT) containing 10% heat inactivated FBS (GIBCO #10099141C), 1% Pen-Strep (HyClone SV30010) and incubated at 37° ΔC, 5% CO2 overnight. On day 2, compound (final concentration at 3.6 μM) or DMSO (0.1%, Sigma Aldrich #8418) was added to THP1 cells and further incubated for 2 hrs min at 37° ΔC, 5% CO2. Cells were then collected for RNA extraction.
# Total RNA was extracted with TRIzol reagent (Invitrogen #15596026) and […] was used to synthesize first-strand cDNA with Maxima First Strand cDNA Synthesis Kit (TAKARA #RR036A). Quantitative PCR was performed with Maxima SYBR Green qPCR Master Mix (ABI #4367659, USA). The primer sequences used were as follows: GAPDH (5′-[…]-3′, 5′-[…]-3′). INFP3 (5′-[…]-3′,5′-[…]-3′) Real-time PCR was performed on QuantStudio™ 5 Real-Time PCR System (Thermo Fisher). Relative expression levels of IFNβ gene were normalized against the level of GAPDH expression by the 2^−ΔΔCT method. Each PCR reaction was performed in triplicates.
# T1 sequence (Q86WV6 whole entry R71H/G230A/H232R/R293Q, canonical isoform): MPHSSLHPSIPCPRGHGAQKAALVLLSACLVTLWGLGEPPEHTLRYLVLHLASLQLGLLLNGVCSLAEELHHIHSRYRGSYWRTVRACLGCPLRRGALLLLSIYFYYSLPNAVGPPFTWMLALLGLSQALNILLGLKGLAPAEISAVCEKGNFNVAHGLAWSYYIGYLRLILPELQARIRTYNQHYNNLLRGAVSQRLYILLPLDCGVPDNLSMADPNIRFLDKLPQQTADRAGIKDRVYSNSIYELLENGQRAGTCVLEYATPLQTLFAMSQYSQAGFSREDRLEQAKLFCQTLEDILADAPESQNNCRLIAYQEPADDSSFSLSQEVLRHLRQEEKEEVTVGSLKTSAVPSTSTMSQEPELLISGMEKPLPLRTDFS
row,SMILES,Relative mRNA INFβ/GAPDH THP 1
1,"COc1cc(CN(Cc2cn3c4c(c(N5CC6(CCNCC6)C5)c(F)cc4c2=O)OCC3C)[C@H]2CCCN(c3ccc(N)nc3)C2)ccn1 (stereo partly drawn) [Compound 24, 6-((((S)-1-(6-aminopyridin-3-yl)piperidin-3-yl)((2-methoxypyridin-4-yl)methyl)amino)methyl)-9-fluoro-3-methyl-10-(2,7-diazaspiro[3.5]nonan-2-yl)-2H-[1,4]oxazino[2,3,4-ij]quinolin-7(3H)-one]",437.3
2,"COc1cc(CN(Cc2cn3c4c(c(N5CCN(Cc6oc(=O)oc6C)CC5)c(F)cc4c2=O)OCC3C)[C@H]2CCCN(c3ccc(N)nc3)C2)ccn1 (stereo partly drawn) [Compound 25, 6-((((S)-1-(6-aminopyridin-3-yl)piperidin-3-yl)((2-methoxypyridin-4-yl)methyl)amino)methyl)-9-fluoro-3-methyl-10-(4-((5-methyl-2-oxo-1,3-dioxol-4-yl)methyl)piperazin-1-yl)-2H-[1,4]oxazino[2,3,4-ij]quinolin-7(3H)-one]",604.8
3,"COc1cc(CN(Cc2cn3c4c(c(N5CCN(CNC(N)=O)CC5)c(F)cc4c2=O)OCC3C)[C@H]2CCCN(c3ccc(N)nc3)C2)ccn1 (stereo partly drawn) [Compound 26, 1-((4-(6-((((S)-1-(6-aminopyridin-3-yl)piperidin-3-yl)((2-methoxypyridin-4-yl)methyl)amino)methyl)-9-fluoro-3-methyl-7-oxo-3,7-dihydro-2H-[1,4]oxazino[2,3,4-ij]quinolin-10-yl)piperazin-1-yl)methyl)urea]",3.5
4,"COc1cc(CN(Cc2cn3c4c(c(N5CCOCC5)c(F)cc4c2=O)OCC3C)[C@H]2CCCN(c3ccc(N)nc3)C2)ccn1 (stereo partly drawn) [Compound 27, 6-((((S)-1-(6-aminopyridin-3-yl)piperidin-3-yl)((2-methoxypyridin-4-yl)methyl)amino)methyl)-9-fluoro-3-methyl-10-morpholino-2H-[1,4]oxazino[2,3,4-ij]quinolin-7(3H)-one]",372.4
5,"COc1cc(CN(Cc2cn3c4c(c(N5CCCCC5)c(F)cc4c2=O)OCC3C)[C@H]2CCCN(c3ccc(N)nc3)C2)ccn1 (stereo partly drawn) [Compound 28, 6-((((S)-1-(6-aminopyridin-3-yl)piperidin-3-yl)((2-methoxypyridin-4-yl)methyl)amino)methyl)-9-fluoro-3-methyl-10-(piperidin-1-yl)-2H-[1,4]oxazino[2,3,4-ij]quinolin-7(3H)-one]",1530.0
6,"COc1cc(CN(Cc2cn3c4c(c(N5CC6(COC6)C5)c(F)cc4c2=O)OCC3C)[C@H]2CCCN(c3ccc(N)nc3)C2)ccn1 (stereo partly drawn) [Compound 30, 6-((((S)-1-(6-aminopyridin-3-yl)piperidin-3-yl)((2-methoxypyridin-4-yl)methyl)amino)methyl)-9-fluoro-3-methyl-10-(2-oxa-6-azaspiro[3.3]heptan-6-yl)-2H-[1,4]oxazino[2,3,4-ij]quinolin-7(3H)-one]",986.1
7,"COc1cc(CN(Cc2cn3c4c(c(N5CCC(O)CC5)c(F)cc4c2=O)OCC3C)[C@H]2CCCN(c3ccc(N)nc3)C2)ccn1 (stereo partly drawn) [Compound 31, 6-((((S)-1-(6-aminopyridin-3-yl)piperidin-3-yl)((2-methoxypyridin-4-yl)methyl)amino)methyl)-9-fluoro-10-(4-hydroxypiperidin-1-yl)-3-methyl-2H-[1,4]oxazino[2,3,4-ij]quinolin-7(3H)-one]",1162.4
8,"COc1cc(CN(Cc2cn3c4c(c(N5CCN(C)C(C)C5)c(F)cc4c2=O)OCC3C)[C@H]2CCCN(c3ccc(N)nc3)C2)ccn1 (stereo partly drawn) [Compound 32, 6-((((S)-1-(6-aminopyridin-3-yl)piperidin-3-yl)((2-methoxypyridin-4-yl)methyl)amino)methyl)-10-(3,4-dimethylpiperazin-1-yl)-9-fluoro-3-methyl-2H-[1,4]oxazino[2,3,4-ij]quinolin-7(3H)-one]",814.9
9,"COc1cc(CN(Cc2cn3c4c(c(N5CCc6ccccc6C5)c(F)cc4c2=O)OCC3C)[C@H]2CCCN(c3ccc(N)nc3)C2)ccn1 (stereo partly drawn) [Compound 33, 6-((((S)-1-(6-aminopyridin-3-yl)piperidin-3-yl)((2-methoxypyridin-4-yl)methyl)amino)methyl)-10-(3,4-dihydroisoquinolin-2(1H)-yl)-9-fluoro-3-methyl-2H-[1,4]oxazino[2,3,4-ij]quinolin-7(3H)-one]",849.2
10,"COc1cc(CN(Cc2cn3c4c(c(N5CCC(N)C5)c(F)cc4c2=O)OCC3C)[C@H]2CCCN(c3ccc(N)nc3)C2)ccn1.Cl (stereo partly drawn) [Compound 34, 6-((((S)-1-(6-aminopyridin-3-yl)piperidin-3-yl)((2-methoxypyridin-4-yl)methyl)amino)methyl)-10-(3-aminopyrrolidin-1-yl)-9-fluoro-3-methyl-2H-[1,4]oxazino[2,3,4-ij]quinolin-7(3H)-one Hydrochloride]",54.8
11,"COc1cc(CN(Cc2cn3c4c(c(N5C[C@@H](C)N[C@@H](C)C5)c(F)cc4c2=O)OCC3C)[C@H]2CCCN(c3ccc(N)nc3)C2)ccn1 (stereo partly drawn) [Compound 35, 6-((((S)-1-(6-aminopyridin-3-yl)piperidin-3-yl)((2-methoxypyridin-4-yl)methyl)amino)methyl)-10-((3S,5R)-3,5-dimethylpiperazin-1-yl)-9-fluoro-3-methyl-2H-[1,4]oxazino[2,3,4-ij]quinolin-7(3H)-one]",3791.8
12,"COc1cc(CN(Cc2cn3c4c(c(N5CCC(N6CCOCC6)CC5)c(F)cc4c2=O)OCC3C)[C@H]2CCCN(c3ccc(N)nc3)C2)ccn1 (stereo partly drawn) [Compound 36, 6-((((S)-1-(6-aminopyridin-3-yl)piperidin-3-yl)((2-methoxypyridin-4-yl)methyl)amino)methyl)-9-fluoro-3-methyl-10-(4-morpholinopiperidin-1-yl)-2H-[1,4]oxazino[2,3,4-ij]quinolin-7(3H)-one]",9395.6
13,"COc1cc(CN(Cc2cn3c4c(c(N5CCCCC5C)c(F)cc4c2=O)OCC3C)[C@H]2CCCN(c3ccc(N)nc3)C2)ccn1 (stereo partly drawn) [Compound 37, 6-((((S)-1-(6-aminopyridin-3-yl)piperidin-3-yl)((2-methoxypyridin-4-yl)methyl)amino)methyl)-9-fluoro-3-methyl-10-(2-methylpiperidin-1-yl)-2H-[1,4]oxazino[2,3,4-ij]quinolin-7(3H)-one]",6829.2
14,"COc1cc(CN(Cc2cn3c4c(c(N5CC(O)C5)c(F)cc4c2=O)OCC3C)[C@H]2CCCN(c3ccc(N)nc3)C2)ccn1 (stereo partly drawn) [Compound 38, 6-((((S)-1-(6-aminopyridin-3-yl)piperidin-3-yl)((2-methoxypyridin-4-yl)methyl)amino)methyl)-9-fluoro-10-(3-hydroxyazetidin-1-yl)-3-methyl-2H-[1,4]oxazino[2,3,4-ij]quinolin-7(3H)-one]",672.0
15,"COc1cc(CN(Cc2cn3c4c(c(N5CCNCC5)c(F)cc4c2=O)OCC3C)[C@H]2CCCN(c3ccc(N)nc3)C2)ccn1 (stereo partly drawn) [Compound 39, 6-((((S)-1-(6-aminopyridin-3-yl)piperidin-3-yl)((2-methoxypyridin-4-yl)methyl)amino)methyl)-9-fluoro-3-methyl-10-(piperazin-1-yl)-2H-[1,4]oxazino[2,3,4-ij]quinolin-7(3H)-one]",81.3
16,"COc1cc(CN(Cc2cn3c4c(c(N5CCNC(C)C5)c(F)cc4c2=O)OCC3C)[C@H]2CCCN(c3ccc(N)nc3)C2)ccn1 (stereo partly drawn) [Compound 40, 6-((((S)-1-(6-aminopyridin-3-yl)piperidin-3-yl)((2-methoxypyridin-4-yl)methyl)amino)methyl)-9-fluoro-3-methyl-10-(3-methylpiperazin-1-yl)-2H-[1,4]oxazino[2,3,4-ij]quinolin-7(3H)-one]",352.8
17,"COc1cc(CN(Cc2cn3c4c(c(N5CCNCC5C)c(F)cc4c2=O)OCC3C)[C@H]2CCCN(c3ccc(N)nc3)C2)ccn1 (stereo partly drawn) [Compound 41, 6-((((S)-1-(6-aminopyridin-3-yl)piperidin-3-yl)((2-methoxypyridin-4-yl)methyl)amino)methyl)-9-fluoro-3-methyl-10-(2-methylpiperazin-1-yl)-2H-[1,4]oxazino[2,3,4-ij]quinolin-7(3H)-one]",1.2
18,"CNC1CCCN(c2c(F)cc3c(=O)c(CN(Cc4ccnc(OC)c4)[C@H]4CCCN(c5ccc(N)nc5)C4)cn4c3c2OCC4C)C1.Cl (stereo partly drawn) [Compound 42, 6-((((S)-1-(6-aminopyridin-3-yl)piperidin-3-yl)((2-methoxypyridin-4-yl)methyl)amino)methyl)-9-fluoro-3-methyl-10-(3-(methylamino)piperidin-1-yl)-2H-[1,4]oxazino[2,3,4-ij]quinolin-7(3H)-one Hydrochloride]",12.1
